Reference: patent US11897887B2, “sGC stimulators” (Tisento Therapeutics Inc., priority 2017, dated 2024)

target: T1, sGC enzyme (Homo sapiens, UniProt Q02153); test: cGMP GloSensor cell-based assay, 384-well format; settings: HEK293 cells expressing GloSensor 40F cGMP; 10 μM DETA-NONOate; 55 min incubation; normalized to high control Compound Y (30 μM); read-out: Glo-sGC Absolute EC50
T1 construct: incorporated into these cells detect cGMP formed by the compounds stimulating the sGC enzyme; host or cells: HEK293 cells stably expressing the GloSensor 40F cGMP biosensor
T1 sequence (Q02153 1-619): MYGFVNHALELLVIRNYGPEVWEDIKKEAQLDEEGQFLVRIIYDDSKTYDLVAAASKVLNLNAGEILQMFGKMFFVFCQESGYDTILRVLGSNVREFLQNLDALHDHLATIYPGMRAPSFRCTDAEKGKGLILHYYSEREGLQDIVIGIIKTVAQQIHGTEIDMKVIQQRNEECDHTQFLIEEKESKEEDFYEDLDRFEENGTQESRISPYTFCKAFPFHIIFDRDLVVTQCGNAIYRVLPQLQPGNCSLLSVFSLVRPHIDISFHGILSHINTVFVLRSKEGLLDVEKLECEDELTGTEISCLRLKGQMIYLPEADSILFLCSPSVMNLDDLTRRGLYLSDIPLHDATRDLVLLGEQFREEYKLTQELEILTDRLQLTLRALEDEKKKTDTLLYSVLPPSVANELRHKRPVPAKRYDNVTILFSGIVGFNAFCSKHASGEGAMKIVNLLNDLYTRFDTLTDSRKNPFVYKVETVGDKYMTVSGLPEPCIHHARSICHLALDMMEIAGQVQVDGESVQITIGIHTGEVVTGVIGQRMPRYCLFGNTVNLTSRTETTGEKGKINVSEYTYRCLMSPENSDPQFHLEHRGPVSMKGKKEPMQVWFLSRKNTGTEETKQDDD
T1 sequence (Q02108 1-690 partner): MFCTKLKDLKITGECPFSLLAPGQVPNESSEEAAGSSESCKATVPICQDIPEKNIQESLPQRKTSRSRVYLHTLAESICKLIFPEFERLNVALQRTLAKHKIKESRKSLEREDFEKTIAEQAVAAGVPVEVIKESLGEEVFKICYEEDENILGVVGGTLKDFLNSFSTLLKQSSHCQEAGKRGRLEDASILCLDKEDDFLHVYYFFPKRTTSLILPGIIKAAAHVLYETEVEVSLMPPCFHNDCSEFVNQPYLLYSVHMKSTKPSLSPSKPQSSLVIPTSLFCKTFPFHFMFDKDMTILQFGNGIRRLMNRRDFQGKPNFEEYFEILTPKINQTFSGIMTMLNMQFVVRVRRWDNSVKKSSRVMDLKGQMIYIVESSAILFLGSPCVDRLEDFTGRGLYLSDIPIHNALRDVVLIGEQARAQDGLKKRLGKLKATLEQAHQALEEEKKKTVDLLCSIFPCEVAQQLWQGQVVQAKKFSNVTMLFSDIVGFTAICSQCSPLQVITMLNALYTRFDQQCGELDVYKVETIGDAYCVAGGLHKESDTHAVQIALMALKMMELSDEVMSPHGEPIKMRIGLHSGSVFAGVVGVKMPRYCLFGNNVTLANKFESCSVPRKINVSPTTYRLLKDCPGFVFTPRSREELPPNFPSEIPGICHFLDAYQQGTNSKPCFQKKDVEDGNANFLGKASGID
Protocol: Human embryonic kidney cells (HEK293) cells expressing GloSensor™ 40F cGMP (Part No: CS182801, Promega) were used to evaluate the activity of test compounds. The luminescent biosensors (engineered luciferase) that were incorporated into these cells detect cGMP formed by the compounds stimulating the sGC enzyme and emit luminescence.
cGMP GoSensor cells were maintained in Dulbecco's Modification of Eagle's Medium (DMEM) supplemented with fetal bovine serum (FBS, 10% final) and hygromycine (200 ug/ml). The day before assay, cells were plated in DMEM with 10% FBS in a 50 μL volume at a density of 1.5×10^4 cells/well in a poly-D-lysine coated 384-well flat white-bottom plate (Corning Cat No 35661). Cells were incubated overnight at 37° C. in a humidified chamber with 5% CO2. The next day, medium was removed and cells were replaced with 40 ul/well of GoSensor™, 2 mM (Promega Cat No E1291). Cells were treated for 90 minutes at 25° C. to allow the substrate to equilibrate in the cells. Test compounds and Diethylenetriamine NONOate (DETA-NONOate) was diluted to 3 mM (20×) in serum-free CO2 independent medium and serially diluted at 4× dilutions to create 5× dose curve from which 10 ul was added to the wells (x μM concentration for test compound solution and 10 μM concentration for DETA-NONOate solution; wherein x is one of the following final concentrations).
For the kinetics studies, luminescence was measured right away for 0.2 sec per well with Envision (Perkin Elmer). For endpoint SAR screening, data were collected after 55 min incubation at room temperature.
Data were normalized to a high control using the following equation: 100*(Sample-Low Control)/(High Control-Low Control), where the low control is the average of sixteen DMSO (1%) control datapoints, and the high control is the average of sixteen Compound Y (30 μM) datapoints, wherein Compound Y is depicted below. Data were fit using a 4-parameter fit (log(agonist) vs. response—variable slope) using GraphPad Prism Software v.5. n=2 for all compounds. The Absolute EC50 was interpolated from the curve fit and is defined as the concentration at which a given compound elicits 50% of the high control response after data normalization as indicated above. Compounds failing to elicit a minimum response of 50% are reported as >30 μM or ND (not determined). For compounds run in duplicate or n higher than 2, the result herein given is the geometric mean of the several results obtained.

EC50 [nM]	Compound
≤ 100	OC(CNc1nc(-c2cn3ccnc3c(Cc3ccccc3F)n2)ncc1F)(C(F)(F)F)C(F)(F)F [Compound I-2, 1,1,1,3,3,3-hexafluoro-2-(((5-fluoro-2-(8-(2-fluorobenzyl)imidazo[1,2-a]pyrazin-6-yl)pyrimidin-4-yl)amino)methyl)propan-2-ol]
≤ 100	NC(=O)[C@](O)(CNc1nc(-c2cn3ccnc3c(Cc3ccccc3F)n2)ncc1F)C(F)(F)F [Compound I-3]
≤ 100	NC(=O)[C@](O)(CNc1nc(-c2cn3ccnc3c(Cc3cc(F)ccc3F)n2)ncc1F)C(F)(F)F [Compound I-5]
100 to 1000	OC(CNc1nc(-c2cn3ncnc3c(Cc3ccccc3F)n2)ncc1F)(C(F)(F)F)C(F)(F)F [Compound I-6]
1000 to 30000	Cc1c(F)cc(Cc2nc(-c3ncc(Cl)c(NCC(O)(C(F)(F)F)C(F)(F)F)n3)cn3ccnc23)cc1F [Compound I-10]
100 to 1000	NC(=O)[C@](O)(CNc1nc(-c2cn3ncnc3c(Cc3ccccc3F)n2)ncc1F)C(F)(F)F [Compound I-16]

The next lines start with the compound.

Compound	EC50 [nM]
OC(CNc1nc(-c2cn3ccnc3c(Cc3ccccc3F)n2)ncc1Cl)C(F)(F)F (racemic) [Compound I-8]	100 to 1000
COc1cnc(-c2cn3ncnc3c(Cc3ccccc3F)n2)nc1NCC(O)C(F)(F)F (racemic) [Compound I-11]	1000 to 30000
CC(C)(O)CNc1nc(-c2cn3c(Cl)cnc3c(Cc3ccccc3F)n2)ncc1F [Compound I-7]	100 to 1000
OCCNc1ccnc(-c2cn3ccnc3c(Cc3ccccc3F)n2)n1 [Compound I-9]	100 to 1000
N#Cc1cnc(-c2cn3ncnc3c(Cc3ccccc3F)n2)nc1NCC(O)(C(F)(F)F)C(F)(F)F [Compound I-12]	100 to 1000
O=P([O-])([O-])OC(CNc1nc(-c2cn3ccnc3c(Cc3ccccc3F)n2)ncc1F)(C(F)(F)F)C(F)(F)F.[Na+].[Na+] [Compound I-15]	1000 to 30000

test system: Sprague-Dawley Rats; test: Blood pressure change in Sprague-Dawley rats; settings: conscious rat, Compound I-15 (prodrug salt of I-2) dosed orally in water at 10 mg/kg, 160 minutes post-dose
Protocol: Male rats (250-350 g body weight, supplied by Harlan Laboratories) were anesthetized with ketamine/xylazine and a heparinized saline fluid filled catheter implanted into the right femoral artery. The catheter was exteriorized between the scapula, capped, and the animal allowed to recover for at least 7 days post surgery prior to any compound testing. Prior to testing animals were maintained on normal diet, with free access to drinking water, under a 12 hour light-dark cycle.
On the day of experimentation, under inhaled isoflurane anesthesia, the catheter was uncapped and connected to a tether (Instech Labs) and pressure transducer (Harvard Apparatus). Blood pressure and heart rate were subsequently captured and analyzed with a dedicated data capture system (PowerLab, ADInstruments). Data sampling rates were set at 1 cycle per second. Once connected, each rat was allowed to recover from anesthesia and baseline blood pressure and heart rate levels were established in these conscious, freely-moving animals. Once baseline was established either vehicle (0.5% methylcellulose or 100% PEG400) or test article was administered orally (PO, 10 mg/kg) and the effects on blood pressure and heart rate monitored for up to 24 hours.

Compound	decrease of MAP (mean arterial pressure) below baseline
OC(CNc1nc(-c2cn3ccnc3c(Cc3ccccc3F)n2)ncc1F)(C(F)(F)F)C(F)(F)F [Compound I-2, 1,1,1,3,3,3-hexafluoro-2-(((5-fluoro-2-(8-(2-fluorobenzyl)imidazo[1,2-a]pyrazin-6-yl)pyrimidin-4-yl)amino)methyl)propan-2-ol]	about 10 mmHg

same assay, conditions: rat, dosed orally in water at 10 mg/kg, one hour post-dose

Compound	dosed Compound I-15 converted to Compound I-2 [%]
O=P([O-])([O-])OC(CNc1nc(-c2cn3ccnc3c(Cc3ccccc3F)n2)ncc1F)(C(F)(F)F)C(F)(F)F.[Na+].[Na+] [Compound I-15]	97.5
